Experimental data taken from article PMC9490236, “Accurate de novo design of membrane-traversing macrocycles” (Cell, 2022).
Where a SMILES comes first, the peptide text is derived from it. [ ]: non-standard residue; d: D form. NMeI = CC[C@H](C)[C@H](NC)C(=O)O; dNMeF = CN[C@H](Cc1ccccc1)C(=O)O; NMeL = CN[C@@H](CC(C)C)C(=O)O; dNMeL = CN[C@H](CC(C)C)C(=O)O; dNMeA = CN[C@H](C)C(=O)O

Columns and labels:
[1] = PAMPA
[2] = Caco-2 permeability assay (apical to basolateral); assay type: in vitro ADME, human; details: for Papp A→B: Caco-2, Caco_Papp_Average; for Papp at 90 min, 50 µM: human, Caco-2
Description: (§1) Human colon adenocarcinoma-derived Caco-2 cell line was used as a model system to investigate the intestinal epithelial permeability of our designs. Caco-2 cells were propagated in T125 flasks (Corning, Merck) using Dulbecco’s modified Eagle medium supplemented with 10% (v/v) fetal bovine serum, 1% (v/v) nonessential amino acids, and 1% (v/v) penicillin-streptomycin (Gibco, Thermo Fisher Scientific) at 37°C in an atmosphere of 5% CO2. Cells were subcultured when they reached 80% confluence.
(§2) The permeability of designed peptides was evaluated using an accelerated 6-day Caco-2 permeability assay as described previously ([Sevin et al., 2013]). In brief, cells were seeded into the 12-well Transwell plates with 0.4 μm polyester membrane inserts (Corning, Merck) to give 4.0 × 10^5 cells/well. The complete assay medium contained Dulbecco’s modified Eagle medium supplemented with 10% (v/v) fetal bovine serum, 1% (v/v) nonessential amino acids, and 0.4 μg/mL puromycin. The medium in plates was renewed every second day. The inserts received 0.75 mL of assay medium in the upper compartment (apical chamber) and 1.5 mL in the bottom compartment (basolateral chamber) individually. After 6-day incubation or until the cells formed monolayers, the medium in the apical and basolateral chamber was replaced with peptide solutions at 50 μM or Hanks' Balanced Salt Solution (HBSS), separately. The plates were incubated for 90 min at 37°C on an orbital shaker (60 rpm). The peptide concentration of solutions in the apical and basolateral compartments was subsequently quantified using LC-MS (Qstar Elite, AB Sciex Australia) to evaluate the transmembrane flux of peptides in the apical-to-basolateral direction. Membrane integrity of the Caco-2 cell monolayer was validated using trans-epithelial electrical resistance (TEER) measurements before and after the assays. Atenolol and quinidine were included as negative and positive controls in all assays.

[3] = system: Caco-2 cells; assay: Caco-2 permeability assay (apical to basolateral); assay type: in vitro ADME, human; details: Caco-2
Description: as §1, §2

[4] = in vitro; details: PAMPA, PAMPA_Papp_Avg

Row | Structure (SMILES) | PAMPA_R1 [1] | PAMPA_R3 [1] | Papp A→B [2] | Papp at 90 min, 50 µM [2] | Caco_R1 [3] | Caco_R3 [3] | Papp [4]
1 | CC[C@@H](C)[C@H]1NC(=O)[C@H]2CCCN2C(=O)[C@@H]2CCCN2C(=O)[C@@H]([C@H](C)CC)NC(=O)[C@@H](Cc2ccccc2)NC(=O)[C@@H](Cc2ccccc2)N(C)C(=O)[C@@H]2CCCN2C(=O)[C@@H](C(C)C)NC1=O [Design D8.33, DPHE DILE PRO DPRO DILE DVAL PRO *DPHE] (cyclo(P[dNMeF][dF][dI]P[dP][dI][dV])) | 5.91E-06 | 1.01E-05 | 19.1 ×10⁻⁶ cm/s | > 10 ×10⁻⁶ cm/s | 18.4 | 16.82 | 6.72 ×10⁻⁶ cm/s
2 | CC[C@H](C)[C@H]1C(=O)N[C@H](C)C(=O)N[C@@H](CC(C)C)C(=O)N[C@@H](C(C)C)C(=O)N2CCC[C@@H]2C(=O)N(C)[C@@H](CC(C)C)C(=O)N[C@@H](C(C)C)C(=O)N2CCC[C@H]2C(=O)N(C)[C@H](CC(C)C)C(=O)N[C@@H](C(C)C)C(=O)N1C [Design D10.19, DALA LEU VAL DPRO *LEU VAL PRO *DLEU VAL *ILE] (cyclo(LV[dP][NMeL]VP[dNMeL]V[NMeI][dA])) | 7.24E-06 | 7.38E-06 | 17.1 ×10⁻⁶ cm/s | > 10 ×10⁻⁶ cm/s | 15.38 | 17.24 | 6.36 ×10⁻⁶ cm/s
3 | CC(C)C[C@@H]1C(=O)N[C@H](CC(C)C)C(=O)N2CCC[C@@H]2C(=O)N2CCC[C@@H]2C(=O)N(C)[C@@H](CC(C)C)C(=O)N[C@H](CC(C)C)C(=O)N2CCC[C@@H]2C(=O)N2CCC[C@H]2C(=O)N1C [Design D8.32, DPRO DPRO *LEU DLEU DPRO PRO *DLEU DLEU] (cyclo([dNMeL][dL][dP][dP][NMeL][dL][dP]P)) | 5.82E-06 | 5.16E-06 | 2.73 ×10⁻⁶ cm/s | – | 2.78 | 2.54 | 5.37 ×10⁻⁶ cm/s
4 | CC[C@@H](C)[C@H]1NC(=O)[C@@H]2CCCN2C(=O)[C@@H]([C@H](C)CC)NC(=O)[C@@H](C)N(C)C(=O)[C@H](CC(C)C)NC(=O)[C@@H](Cc2ccccc2)NC(=O)[C@H](CC(C)C)N(C)C(=O)[C@H]2CCCN2C(=O)[C@@H](CC(C)C)NC(=O)[C@H](CC(C)C)NC(=O)[C@H]2CCCN2C1=O [Design D11.1, DILE DPRO LEU DLEU DPRO *LEU DPHE LEU *DALA DILE PRO] (cyclo(L[dL][dP][NMeL][dF]L[dNMeA][dI]P[dI][dP])) | 3.55E-06 | 3.63E-06 | 2.77 ×10⁻⁶ cm/s | – | 2.39 | 3.24 | 3.48 ×10⁻⁶ cm/s
5 | CC[C@H](C)[C@@H]1NC(=O)[C@@H](CC(C)C)N(C)C(=O)[C@H](CC(C)C)N(C)C(=O)[C@@H](Cc2ccccc2)NC(=O)[C@@H](CC(C)C)N(C)C(=O)[C@H]2CCCN2C(=O)[C@H]2CCCN2C(=O)[C@@H]2CCCN2C(=O)[C@@H](C(C)C)NC(=O)[C@@H]2CCCN2C(=O)[C@H](C)NC1=O [Design D11.11, PRO DPRO DPRO *DLEU DPHE *LEU *DLEU ILE ALA PRO DVAL] (cyclo(AP[dV]P[dP][dP][dNMeL][dF][NMeL][dNMeL]I)) | 1.97E-06 | 2.38E-06 | 4.92 ×10⁻⁶ cm/s | – | 2.88 | 5.78 | 2.26 ×10⁻⁶ cm/s
6 | CC(C)C[C@@H]1NC(=O)[C@H]2CCCN2C(=O)[C@@H]2CCCN2C(=O)[C@H](CC(C)C)NC(=O)[C@@H](CC(C)C)NC(=O)[C@@H](C)N(C)C(=O)[C@@H](C)N(C)C(=O)[C@@H](C(C)C)NC1=O [Design D8.6, LEU PRO DPRO LEU DVAL *DALA *DALA DLEU] (cyclo(LP[dP]L[dV][dNMeA][dNMeA][dL])) | 3.54E-06 | 3.44E-06 | 0.737 ×10⁻⁶ cm/s | – | 0.86 | 0.45 | 3.35 ×10⁻⁶ cm/s
7 | CC(C)C[C@@H]1NC(=O)[C@H](Cc2ccccc2)NC(=O)[C@@H](CC(C)C)NC(=O)[C@H]2CCCN2C(=O)[C@H](C(C)C)NC(=O)[C@@H](CC(C)C)NC(=O)[C@H]2CCCN2C(=O)[C@@H]2CCCN2C1=O [Design D8.5.p2, PHE LEU PRO DPRO DLEU VAL DPRO DLEU] (cyclo(FLP[dP][dL]V[dP][dL])) | 5.46E-06 | 5.67E-06 | 21.4 ×10⁻⁶ cm/s | – | 17.839 | 20.36 | 5.8 ×10⁻⁶ cm/s
